{"source": "patent US8084456B2", "about": "“Pyrazine-based tubulin inhibitors” (YM Biosciences Australia Pty Ltd, priority 2002, dated 2011)", "key": {"[1]": {"tested_on": "DU145 (Prostate Cancer) cells", "test": "Cellular growth assay (MTT), DU145", "assay_type": "cell-based", "conditions": "Homo sapiens, DU-145, 40 hr incubation, read-out: DU145 (inhibition of 50% of cellular growth)", "method": "(§1) K562 (Chronic Myeloid Leukemia), PC3 (Prostate Cancer), and DU145 (Prostate Cancer) were obtained from the American Type Culture Collection (ATCC). K562 was grown in RPMI, with 10% FBS with Glutamx added. DU145 cells were cultured in DMED, with 10% FBS and Glutamx and MEM non-essential amino acids added. PC3 cells were grown in F12K medium, with 10% FBS and Glutamx and MEM non-essential amino acids added. All cells were grown at 37° C. in 5% CO2."}, "[2]": {"tested_on": "K562 (Chronic Myeloid Leukemia) cells", "test": "Cellular growth assay (MTT), K562", "assay_type": "cell-based", "conditions": "Homo sapiens, 40 hr incubation, read-out: K562 (inhibition of 50% of cellular growth)", "method": "as §1"}, "TelJak3": {"biological_target": "TelJak3 (Homo sapiens, UniProt P52333)", "sequence (P52333 with tags, fused parts or gaps)": "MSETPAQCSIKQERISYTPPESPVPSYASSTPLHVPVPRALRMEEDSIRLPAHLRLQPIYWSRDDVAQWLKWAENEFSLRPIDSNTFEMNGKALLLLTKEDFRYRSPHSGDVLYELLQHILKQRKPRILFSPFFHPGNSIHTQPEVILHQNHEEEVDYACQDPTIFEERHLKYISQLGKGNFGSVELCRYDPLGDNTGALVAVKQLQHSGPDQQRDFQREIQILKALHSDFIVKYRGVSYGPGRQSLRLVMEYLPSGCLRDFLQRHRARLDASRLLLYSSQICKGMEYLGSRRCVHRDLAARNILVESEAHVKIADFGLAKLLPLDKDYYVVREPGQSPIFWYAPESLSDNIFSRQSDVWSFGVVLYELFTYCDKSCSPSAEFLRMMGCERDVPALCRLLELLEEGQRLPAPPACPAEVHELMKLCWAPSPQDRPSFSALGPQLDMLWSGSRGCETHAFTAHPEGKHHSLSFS", "test": "Cellular growth assay (MTT), BaF3 TEL/JAK3 cells", "assay_type": "cell-based", "conditions": "40 hr incubation, read-out: TelJak3 (inhibition of 50% of cellular growth)"}, "[3]": {"tested_on": "PC3 (Prostate Cancer) cells", "test": "Cellular growth assay (MTT), PC3", "assay_type": "cell-based", "conditions": "Homo sapiens, PC-3, 40 hr incubation, read-out: PC3 (inhibition of 50% of cellular growth)", "method": "as §1"}, "Tubulin": {"tested_on": "Tubulin", "test": "Tubulin assay (turbidometric microtubule assembly)", "assay_type": "biochemical", "conditions": "at 50 μM, absorbance at 340 nm, 37° C.", "method": "Turbidometric assays of microtubule assembly were performed by incubating microtubule protein in cuvettes at 37° C. in a thermostatically controlled spectrophotometer measuring the change in absorbance at 340 nm over time. The microtubule protein was incubated with the each test compound at 0° C. and polymerisation was initiated by addition of 1 mM GTP, prior to heating to 37° C."}, "TelJak2": {"biological_target": "TelJak2 (Homo sapiens, UniProt O60674)", "sequence (O60674 with tags, fused parts or gaps)": "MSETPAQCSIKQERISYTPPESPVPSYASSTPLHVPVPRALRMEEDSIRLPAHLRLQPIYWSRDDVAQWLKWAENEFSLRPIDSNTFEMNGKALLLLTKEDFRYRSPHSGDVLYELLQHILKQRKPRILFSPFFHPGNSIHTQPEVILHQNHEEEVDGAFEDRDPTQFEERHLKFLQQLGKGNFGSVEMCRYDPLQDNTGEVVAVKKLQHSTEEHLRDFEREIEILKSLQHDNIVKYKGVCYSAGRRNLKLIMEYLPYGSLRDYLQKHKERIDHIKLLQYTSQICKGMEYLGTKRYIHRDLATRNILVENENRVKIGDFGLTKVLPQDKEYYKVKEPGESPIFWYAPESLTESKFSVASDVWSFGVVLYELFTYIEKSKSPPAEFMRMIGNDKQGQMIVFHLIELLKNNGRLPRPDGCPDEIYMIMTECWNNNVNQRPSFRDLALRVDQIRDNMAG", "test": "Cellular growth assay (MTT), BaF3 TEL/JAK2 cells", "assay_type": "cell-based", "conditions": "40 hr incubation, read-out: TelJak2 (inhibition of 50% of cellular growth)"}}}
{"smiles": "CCCC(Nc1cncc(-c2ccc(O)c(OC)c2)n1)c1ccc(Cl)cc1", "note": "(stereo not drawn)", "values": [{"measurement": "IC50", "setting": "[1]", "result": "≤ 20", "unit": "µM"}, {"measurement": "IC50", "setting": "[2]", "result": "≤ 20", "unit": "µM"}, {"measurement": "IC50", "setting": "TelJak3", "result": "≤ 20", "unit": "µM"}, {"measurement": "IC50", "setting": "[3]", "result": "≤ 20", "unit": "µM"}, {"measurement": "Tubulin (inhibition of tubulin polymerisation)", "setting": "Tubulin", "result": "+ (inhibited tubulin polymerisation by greater than 50% at 50 μM)"}, {"measurement": "IC50", "setting": "TelJak2", "result": "≤ 20", "unit": "µM"}]}
{"smiles": "CCCC(Nc1cncc(-c2ccc(O)c(OC)c2)n1)c1cccc(NC(=O)c2cccnc2)c1", "note": "(stereo not drawn)", "values": [{"measurement": "IC50", "setting": "[1]", "result": "≤ 20", "unit": "µM"}, {"measurement": "IC50", "setting": "[2]", "result": "≤ 20", "unit": "µM"}, {"measurement": "IC50", "setting": "TelJak3", "result": "≤ 20", "unit": "µM"}, {"measurement": "IC50", "setting": "[3]", "result": "≤ 20", "unit": "µM"}, {"measurement": "Tubulin (inhibition of tubulin polymerisation)", "setting": "Tubulin", "result": "+ (inhibited tubulin polymerisation by greater than 50% at 50 μM)"}, {"measurement": "IC50", "setting": "TelJak2", "result": "≤ 20", "unit": "µM"}]}
